From patent US20020165286A1, “Dermal anti-inflammatory composition” (priority 2000, published 2002)
Read-outs that look alike come from different tables or passages of the source.

Experiments:
[1] = cited from earlier work
[2] = cited from earlier work; remark: listed apart in the source
[3] = cited from earlier work; remark: listed apart in the source
[4] = cited from earlier work; remark: listed apart in the source
[5] = cited from earlier work; remark: listed apart in the source
rhino mouse = experiment: Rhino mouse study: comedolytic activity (number of utriculi, epidermal thickness); format: in vivo, rhino mice (RHJ/LeJ Rhino, hr^rh/hr^rh); conditions: test substance dissolved in ethanol only
From the text: The rhino mouse is an in vivo model for the study of hyperplastic and comedolytic potency of various drugs used in the treatment of acne. The rhino mouse has follicles on the skin. The orifices are distended with horny material and these structures resembles human microcomedones and are referred to as utriculi or pseudocomedones.
In the present study, the comedolytic activity and skin irritation potential of 3% w/v solutions of test substance (1) in different vehicles was studied in order to select a formulation suited for topical application. Selected commercial acne products were included in the study for the purpose of comparison.
105 female rhino mice (RHJ/LeJ Rhino, hr^rh/hr^rh) aged 6-9 weeks were obtained from M&B A/S, Denmark. The mice were placed in cages with free access to a commercial rodent diet (Altromin 1324) and tap water. […]
The mice were killed one day after the end of the treatment period and the dorsal skin was removed. […] These slices were evaluated under the microscope (Nikon LABOPHOT-2) for the number of epidermal utriculi and utriculi profile (×200) and the epidermal thickness (×400), and the mean value and standard deviation for each animal was estimated. […]

Row | Structure (SMILES) | Anti-inflam. ([1]; systemic administration) | Antibacterial ([2]; systemic administration) | Comedolytic ([3]; systemic administration) | Teratogenic ([4]; systemic administration) | Potential irritant ([5]; systemic administration) | Anti-inflam. ([1]; topical administration) | Antibacterial ([2]; topical administration) | Comedolytic ([3]; topical administration) | Potential irritant ([5]; topical administration) | Teratogenic ([4]; topical administration) | reduction in the number of utriculi (rhino mouse) [%]
1 | CN(C)c1ccc(O)c2c1C[C@H]1C[C@H]3[C@H](N(C)C)C(O)=C(C(N)=O)C(=O)[C@@]3(O)C(O)=C1C2=O [Minocyclin] | Yes | Yes | No | Yes |  |  |  |  |  |  | 
2 | CC1=C(/C=C/C(C)=C/C=C/C(C)=C\C(=O)O)C(C)(C)CCC1 [Isotretinoin] | Yes | Yes | Yes | Yes | Yes |  |  |  |  |  | 
3 | O=C(O)CCCCCCCC(=O)O [Azelaic acid] |  |  |  |  |  | Maybe | Yes | Yes | Yes | No | 
4 | O=C(OOC(=O)c1ccccc1)c1ccccc1 [Benzoyl peroxide] |  |  |  |  |  | Maybe | Yes | Somewhat | Yes |  | 
5 | CN(C)[C@@H]1C(=O)C(C(N)=O)=C(O)[C@@]2(O)C(=O)C3=C(O)c4c(O)cccc4[C@@](C)(O)[C@H]3C[C@@H]12 [Tetracyclin] | Yes | Yes | No | Yes | No |  |  |  |  |  | 
6 | Cc1cc(F)ccc1Nc1ccc(C(=O)c2ccccc2C)c(Cl)c1 [test substance (1), 2-chloro-4-(4-fluoro-2-methyl-phenylamino)-2′-methylbenzophenone] |  |  |  |  |  |  |  |  |  |  | 51
7 | CC1=C(/C=C/C(C)=C/C=C/C(C)=C/C(=O)O)C(C)(C)CCC1 [Tretinoin] |  |  |  |  |  | No | No | Yes | Yes | Maybe | 
8 | C[C@H]1c2cccc(O)c2C(O)=C2C(=O)[C@]3(O)C(O)=C(C(N)=O)C(=O)[C@@H](N(C)C)[C@@H]3[C@@H](O)[C@@H]21 [Doxycyclin] | Yes | Yes | No | Yes | No |  |  |  |  |  | 
